Results reported in PubChem BioAssay AID2060627 (Molecular Pharmacology Branch, DTP, NCI, 2025).

Tested on: 156681-154-R-J1-PDC complex spheroid viability
Test: Anticancer human tumor 156681-154-R-J1-PDC patient-derived melanoma cell line growth inhibition [CLK]
Settings: for IC50: curve of first compound; for viability, T/C: stronger effect = lower value
Procedure, shortened: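 Patient-derived tumor cells grown as complex spheroids with HUVEC endothelial cells and mesenchymal stem cells, treated with drug combinations. Concentrations descend in half-log steps from near clinical Cmax, or from 10 microM if Cmax unknown.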

[1] = second compound 0.0316 µM, first compound 0.0316 µM
[2] = second compound 0.0316 µM, first compound 0.1 µM
[3] = second compound 0.0316 µM, first compound 0.316 µM
[4] = second compound 0.0316 µM, first compound 1 µM
[5] = second compound 0.0316 µM, first compound 3.16 µM
[6] = second compound 0.0316 µM, first compound 10 µM
[7] = second compound 0.1 µM, first compound 0.0316 µM
[8] = second compound 0.1 µM, first compound 0.1 µM
[9] = second compound 0.1 µM, first compound 0.316 µM
[10] = second compound 0.1 µM, first compound 1 µM
[11] = second compound 0.1 µM, first compound 3.16 µM
[12] = second compound 0.1 µM, first compound 10 µM
[13] = second compound 0.316 µM, first compound 0.0316 µM
[14] = second compound 0.316 µM, first compound 0.1 µM
[15] = second compound 0.316 µM, first compound 0.316 µM
[16] = second compound 0.316 µM, first compound 1 µM
[17] = second compound 0.316 µM, first compound 3.16 µM
[18] = second compound 0.316 µM, first compound 10 µM
[19] = second compound 1 µM, first compound 0.0316 µM
[20] = second compound 1 µM, first compound 0.1 µM
[21] = second compound 1 µM, first compound 0.316 µM
[22] = second compound 1 µM, first compound 1 µM
[23] = second compound 1 µM, first compound 3.16 µM
[24] = second compound 1 µM, first compound 10 µM
[25] = second compound 3.16 µM, first compound 0.0316 µM
[26] = second compound 3.16 µM, first compound 0.1 µM
[27] = second compound 3.16 µM, first compound 0.316 µM
[28] = second compound 3.16 µM, first compound 1 µM
[29] = second compound 3.16 µM, first compound 3.16 µM
[30] = second compound 3.16 µM, first compound 10 µM
[31] = second compound 10 µM, first compound 0.0316 µM
[32] = second compound 10 µM, first compound 0.1 µM
[33] = second compound 10 µM, first compound 0.316 µM
[34] = second compound 10 µM, first compound 1 µM
[35] = second compound 10 µM, first compound 3.16 µM
[36] = second compound 10 µM, first compound 10 µM
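Further: spheroids exposed to the agents for seven days.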
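Wherever viability, T/C is given: 100% = DMSO vehicle control viability.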

`COc1ccc([C@@H](O)c2cc(-c3ncnc4cc(N5CCOCC5)ccc34)c(F)cc2Cl)nn1` + CN1CCN(c2cc(C(=O)Nc3cc4cc(-c5cnn(C)c5)ccc4cn3)ccn2)CC1 gave an IC50 (second compound 0.0316 µM) of 2.4 µM, an IC50 (second compound 0.1 µM) of 1.45 µM and an IC50 (second compound 0.316 µM) of under 0.0316 µM. The IC50 (second compound 1 µM) was under 0.0316 µM, the IC50 (second compound 3.16 µM) was under 0.0316 µM and the IC50 (second compound 10 µM) was under 0.0316 µM. For the same compound, the viability, T/C [1] was 109%, the viability, T/C [2] was 88.3% and the viability, T/C [3] was 91.3%. It also gave a viability, T/C [4] of 63.6%, a viability, T/C [5] of 45.3% and a viability, T/C [6] of 19.2%. The viability, T/C [7] was 97.5%, the viability, T/C [8] was 84% and the viability, T/C [9] was 73.5%. It also gave a viability, T/C [10] of 58.2%, a viability, T/C [11] of 35% and a viability, T/C [12] of 16.8%. For the same compound, the viability, T/C [13] was 15.7%, the viability, T/C [14] was 16.9% and the viability, T/C [15] was 14.8%. For the same compound, the viability, T/C [16] was 13%, the viability, T/C [17] was 8.38% and the viability, T/C [18] was 2.77%. It also gave a viability, T/C [19] of 0.13%, a viability, T/C [20] of 2% and a viability, T/C [21] of 1.91%. For the same compound, the viability, T/C [22] was 0.33%, the viability, T/C [23] was 1.72% and the viability, T/C [24] was 2.7%. The viability, T/C [25] was 0.06%, the viability, T/C [26] was 1.44% and the viability, T/C [27] was 0.99%. For the same compound, the viability, T/C [28] was 0.08%, the viability, T/C [29] was 3.19% and the viability, T/C [30] was 0.56%. For the same compound, the viability, T/C [31] was 0.06%, the viability, T/C [32] was 2.47% and the viability, T/C [33] was 1.95%. The viability, T/C [34] was 0.88%, the viability, T/C [35] was 2.45% and the viability, T/C [36] was 0.51%.
In the case of `CCCS(=O)(=O)Nc1ccc(F)c(C(=O)c2c[nH]c3ncc(-c4ccc(Cl)cc4)cc23)c1F` + CNC(=O)c1ccc(Nc2nc(OC3CCCC3)c3c(-c4ccc5nc(C)oc5c4)c[nH]c3n2)c(OC)c1, the IC50 (second compound 0.0316 µM) is reported as 4.96 µM, the IC50 (second compound 0.1 µM) is reported as 3.87 µM and the IC50 (second compound 0.316 µM) is reported as 2.09 µM. For the same compound, the IC50 (second compound 1 µM) was under 0.0316 µM, the IC50 (second compound 3.16 µM) was under 0.0316 µM and the IC50 (second compound 10 µM) was under 0.0316 µM. For the same compound, the viability, T/C [1] was 69%, the viability, T/C [2] was 81.1% and the viability, T/C [3] was 70.7%. It also gave a viability, T/C [4] of 113%, a viability, T/C [5] of 76.8% and a viability, T/C [6] of 8.32%. For the same compound, the viability, T/C [7] was 54.8%, the viability, T/C [8] was 57.4% and the viability, T/C [9] was 72.1%. The viability, T/C [10] was 63%, the viability, T/C [11] was 58.2% and the viability, T/C [12] was 10.1%. The viability, T/C [13] was 48%, the viability, T/C [14] was 58.8% and the viability, T/C [15] was 62.3%. It also gave a viability, T/C [16] of 58.7%, a viability, T/C [17] of 46.1% and a viability, T/C [18] of 14.4%. The viability, T/C [19] was 45.8%, the viability, T/C [20] was 48.7% and the viability, T/C [21] was 42.8%. It also gave a viability, T/C [22] of 40.3%, a viability, T/C [23] of 39.1% and a viability, T/C [24] of 12.5%. For the same compound, the viability, T/C [25] was 41.1%, the viability, T/C [26] was 29.7% and the viability, T/C [27] was 33.5%. The viability, T/C [28] was 34%, the viability, T/C [29] was 36.2% and the viability, T/C [30] was 13.8%. The viability, T/C [31] was 34.9%, the viability, T/C [32] was 34.3% and the viability, T/C [33] was 22.1%. For the same compound, the viability, T/C [34] was 32.5%, the viability, T/C [35] was 23.4% and the viability, T/C [36] was 12.2%.
